Tests used:
human DNMT1 = biological target: T1, human DNMT1 (Homo sapiens, UniProt P26358); test: DNMT1 enzyme activity assay (TR-FRET, EPIgeneous methyltransferase assay); type: biochemical; settings: human DNMT1, 15 minutes at 37° C.
T1 construct: purchased Reaction Biology Corp. DMT-21-124
Protocol: DNMT1 Enzyme Activity Assay
The biochemical assay to measure DNMT1 enzyme activity relies on time-resolved fluorescence energy transfer (TR-FRET) between lumi4-Tb (donor) and d2 (acceptor) using the EPIgeneous methyltransferase assay (CisBio Cat#62SAHPEB). […] TR-FRET signal is inversely proportional to the concentration of SAH, product of DNMT1 enzyme activity, in the sample. The human DNMT1 was obtained from Reaction Biology Corp. (Cat# DMT-21-124).
Enzyme activity assay was carried out in a white 384-well plate in a final volume of 20 μl, as follow: • 4 μl of vehicle or studied compound 2.5× concentrated prepared in assay buffer (50 mM Tris-HCl, 1 mM EDTA, 1 mM DTT, 0.1% Triton X-100, 5% glycerol pH 7.5). Final percentage of DMSO was 0.5%. • 2 μl of 1 nM DNMT1 enzyme diluted in assay buffer.
(§1) For each well, fluorescence was measured at 620 nm and 665 nm. A ratio (665 nm/620 nm) was then calculated in order to minimize medium interferences. Positive control was obtained in the presence of the vehicle of the compounds. Calculated IC50 values were determined using GraphPrism using 4-parameters inhibition curve.

human G9a enzyme = biological target: T2, human G9a enzyme (Homo sapiens, UniProt Q96KQ7); test: G9a enzyme activity assay (TR-FRET); type: biochemical; settings: 1 hour at room temperature
T2 construct: purchased BPS Biosciences 51001; host or cells: baculovirus infected Sf9 cells
T2 sequence (Q96KQ7 1-1210): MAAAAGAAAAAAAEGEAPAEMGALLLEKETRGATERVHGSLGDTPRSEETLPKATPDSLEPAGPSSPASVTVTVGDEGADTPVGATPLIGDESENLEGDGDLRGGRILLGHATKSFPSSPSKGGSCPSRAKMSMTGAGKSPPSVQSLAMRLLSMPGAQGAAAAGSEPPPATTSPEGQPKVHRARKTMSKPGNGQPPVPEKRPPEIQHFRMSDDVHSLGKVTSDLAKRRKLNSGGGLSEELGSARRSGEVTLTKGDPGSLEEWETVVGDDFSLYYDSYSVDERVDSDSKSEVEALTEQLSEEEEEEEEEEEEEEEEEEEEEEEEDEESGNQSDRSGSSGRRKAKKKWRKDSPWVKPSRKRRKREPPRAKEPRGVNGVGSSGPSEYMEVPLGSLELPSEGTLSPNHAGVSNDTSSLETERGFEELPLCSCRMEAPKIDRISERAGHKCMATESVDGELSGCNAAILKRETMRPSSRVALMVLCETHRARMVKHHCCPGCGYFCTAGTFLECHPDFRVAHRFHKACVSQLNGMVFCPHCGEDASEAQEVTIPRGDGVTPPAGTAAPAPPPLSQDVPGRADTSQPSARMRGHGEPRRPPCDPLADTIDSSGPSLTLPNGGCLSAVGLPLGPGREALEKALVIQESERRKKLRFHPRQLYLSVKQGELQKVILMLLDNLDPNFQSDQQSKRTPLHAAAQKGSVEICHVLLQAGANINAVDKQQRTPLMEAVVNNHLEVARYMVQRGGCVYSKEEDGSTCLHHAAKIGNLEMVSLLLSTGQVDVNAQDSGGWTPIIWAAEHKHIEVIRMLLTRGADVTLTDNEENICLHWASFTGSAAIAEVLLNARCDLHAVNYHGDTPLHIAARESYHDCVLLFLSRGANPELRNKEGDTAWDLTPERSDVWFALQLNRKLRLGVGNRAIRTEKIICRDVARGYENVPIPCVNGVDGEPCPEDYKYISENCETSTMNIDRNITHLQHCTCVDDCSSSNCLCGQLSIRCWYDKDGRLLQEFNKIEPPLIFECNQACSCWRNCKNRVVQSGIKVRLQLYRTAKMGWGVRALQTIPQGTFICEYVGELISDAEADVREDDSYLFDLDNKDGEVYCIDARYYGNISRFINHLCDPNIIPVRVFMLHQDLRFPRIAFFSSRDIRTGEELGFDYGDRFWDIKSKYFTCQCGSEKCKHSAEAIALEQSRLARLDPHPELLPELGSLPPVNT
Protocol: G9a Enzyme Activity Assay
The biochemical assay to measure G9a enzyme activity relies on time-resolved fluorescence energy transfer (TR-FRET) between europium cryptate (donor) and XL665 (acceptor). […] The human G9a enzyme expressed in a baculovirus infected Sf9 cell expression system was obtained from BPS Biosciences (Cat. #51001). Enzyme activity assay was carried out in a white 384-well plate in a final volume of 20 μl, as follow: • 4 μl of vehicle or studied compound 2.5× concentrated prepared in assay buffer (50 mM Tris-HCl, 10 mM NaCl, 4 mM DTT, 0.01% Tween-20 pH9). Final percentage of DMSO was 0.5%. • 2 μl of 1 nM G9a enzyme diluted in assay buffer. […] Final concentration 150 nM. • Then, add 5 μl of streptavidin XL665 beads. Final concentration of 16 μM. • Read the plate after 1 hour of incubation at room temperature.
as §1, with “compounds. Negative control was obtained in the absence of G9a enzyme activity.” for “compounds.”

T1 sequence (P26358 whole entry): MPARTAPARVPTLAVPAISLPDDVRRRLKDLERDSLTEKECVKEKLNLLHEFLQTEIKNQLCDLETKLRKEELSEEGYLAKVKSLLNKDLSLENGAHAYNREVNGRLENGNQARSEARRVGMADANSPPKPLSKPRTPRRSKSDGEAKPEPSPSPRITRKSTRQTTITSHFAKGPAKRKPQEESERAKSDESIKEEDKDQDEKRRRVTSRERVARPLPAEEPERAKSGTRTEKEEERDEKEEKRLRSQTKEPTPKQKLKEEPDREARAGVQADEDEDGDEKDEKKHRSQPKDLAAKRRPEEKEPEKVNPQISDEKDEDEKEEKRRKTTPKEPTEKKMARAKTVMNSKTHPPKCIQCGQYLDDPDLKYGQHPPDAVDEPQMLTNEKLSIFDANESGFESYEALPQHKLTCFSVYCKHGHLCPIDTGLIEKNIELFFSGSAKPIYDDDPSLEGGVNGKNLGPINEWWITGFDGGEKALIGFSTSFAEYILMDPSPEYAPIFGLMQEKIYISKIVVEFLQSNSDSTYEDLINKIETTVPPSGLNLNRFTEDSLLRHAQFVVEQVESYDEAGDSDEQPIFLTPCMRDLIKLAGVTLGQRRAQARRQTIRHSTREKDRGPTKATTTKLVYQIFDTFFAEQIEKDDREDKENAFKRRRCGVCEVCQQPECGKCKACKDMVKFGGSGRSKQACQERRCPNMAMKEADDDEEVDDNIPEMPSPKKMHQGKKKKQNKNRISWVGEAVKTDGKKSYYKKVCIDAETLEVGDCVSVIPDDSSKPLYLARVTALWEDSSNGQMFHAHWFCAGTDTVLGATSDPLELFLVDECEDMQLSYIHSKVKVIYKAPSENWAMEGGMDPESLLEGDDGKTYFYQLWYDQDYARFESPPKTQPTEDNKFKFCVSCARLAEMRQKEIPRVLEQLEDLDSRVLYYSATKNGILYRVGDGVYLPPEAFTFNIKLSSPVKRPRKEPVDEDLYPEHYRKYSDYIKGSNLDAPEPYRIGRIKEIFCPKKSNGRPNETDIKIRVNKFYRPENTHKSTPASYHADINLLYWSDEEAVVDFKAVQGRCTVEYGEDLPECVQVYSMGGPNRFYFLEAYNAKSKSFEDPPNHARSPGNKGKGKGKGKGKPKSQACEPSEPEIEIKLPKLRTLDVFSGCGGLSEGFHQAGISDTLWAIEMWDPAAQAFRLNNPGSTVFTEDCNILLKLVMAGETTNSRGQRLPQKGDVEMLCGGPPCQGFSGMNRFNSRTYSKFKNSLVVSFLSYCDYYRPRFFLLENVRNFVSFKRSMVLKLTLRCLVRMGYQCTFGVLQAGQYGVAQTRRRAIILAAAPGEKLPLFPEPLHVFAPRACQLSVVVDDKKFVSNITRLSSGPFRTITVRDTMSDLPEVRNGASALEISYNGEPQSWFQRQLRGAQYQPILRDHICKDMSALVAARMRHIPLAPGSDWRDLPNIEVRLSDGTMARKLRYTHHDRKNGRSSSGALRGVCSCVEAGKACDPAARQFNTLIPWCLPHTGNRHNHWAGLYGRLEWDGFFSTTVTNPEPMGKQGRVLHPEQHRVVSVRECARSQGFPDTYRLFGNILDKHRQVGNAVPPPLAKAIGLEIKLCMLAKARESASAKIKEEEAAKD

| Structure (SMILES) | IC50 (human DNMT1) | IC50 (human G9a enzyme) |
| --- | --- | --- |
| COc1cc2c(N(C)C3CCN(C)CC3)cc(-c3cc(C)oc3C)nc2cc1OCCCN1CCCC1 [Compound 1-05] | 1000 to 10000 nM | 1000 to 10000 nM |
| COc1cc2c(N(C)CC3CCN(C)CC3)cc(-c3ccc(C)[nH]3)nc2cc1OCCCN1CCCC1 [Compound 1-06] | 100 to 500 nM | 100 to 500 nM |
| COc1cc2c(N(C)C3CCN(C)CC3)cc(-c3ccc(C)[nH]3)nc2cc1OCCCN1CCCC1 [Compound 1-07] | 500 to 1000 nM | < 100 nM |
| COc1cc2c(N(C)C3CC4(CCN(C)CC4)C3)cc(-c3ccc(C)o3)nc2cc1OCC1CCN(C)CC1 [Compound 1-08, 6-methoxy-N-methyl-N-(7-methyl-7-azaspiro[3.5]nonan-2-yl)-2-(5-methyl-2-furyl)-7-[(1-methyl-4-piperidyl)methoxy]quinolin-4-amine] | 1000 to 10000 nM | > 10000 nM |
| COc1cc2c(N(C)C3CC4(CCN(C(C)C)CC4)C3)cc(-c3ccc(C)o3)nc2cc1OCCCN1CCCC1 [Compound 1-09] | 500 to 1000 nM | 500 to 1000 nM |
| CCc1ccc(-c2cc(N(C)CC3CCN(C)CC3)c3cc(OC)c(OC4CC5(C4)CN(C)C5)cc3n2)o1 [Compound 1-10] | 1000 to 10000 nM | > 10000 nM |
| COc1cc2c(N(C)C)cc(-c3ccc(C)[nH]3)nc2cc1OCCCN1CCCC1 [Compound 1-11] | 1000 to 10000 nM | 100 to 500 nM |
| COc1cc2c(N(C)C)cc(-c3ccc(C)o3)nc2cc1OCCCN1CCCC1 [Compound 1-12] | 1000 to 10000 nM | 1000 to 10000 nM |
| COc1cc2c(N(C)C3CC4(CCN(C(C)C)CC4)C3)cc(-c3ccc(C)o3)nc2cc1OC1CC2(C1)CN(C)C2 (stereo not drawn) [Compound 1-14] | 1000 to 10000 nM | > 10000 nM |
| COc1cc2c(N(C)C3CC4(CCN(C(C)C)CC4)C3)cc(-c3ccc(C)o3)nc2cc1OC1CC2(C1)CN(CC#N)C2 (stereo not drawn) [Compound 1-15] | 1000 to 10000 nM | > 10000 nM |
| CCc1ccc(-c2cc(N(C)CC3CCN(C)CC3)c3cc(OC)c(OCC4CCN(C)CC4)cc3n2)o1 [Compound 1-16] | 1000 to 10000 nM | > 10000 nM |
| COc1cc2c(N(C)C3CCC4(CC3)CN(C)C4)cc(-c3ccc(C)o3)nc2cc1OCCCN1CCCC1 [Compound 1-18] | 1000 to 10000 nM | 1000 to 10000 nM |
| COc1cc2c(N(C)CC3CCN(C)CC3)cc(-c3cc(C)oc3C)nc2cc1OCCCN1CCCC1 [Compound 1-19] | 500 to 1000 nM | 500 to 1000 nM |
| COc1cc2c(N(C)CC3CCN(C)CC3)cc(-c3ccc(C)o3)nc2cc1OCCCN1CCC(F)C1 (stereo not drawn) [Compound 1-20] | 1000 to 10000 nM | > 10000 nM |
| COc1cc2c(N(C)CC3CCN(C)CC3)cc(C3CCCCC3)nc2cc1OCCCN1CCCC1 [Compound 1-21, 2-cyclohexyl-6-methoxy-N-methyl-N-[(1-methyl-4-piperidyl)methyl]-7-(3-pyrrolidin-1-ylpropoxy)quinolin-4-amine] | 1000 to 10000 nM | 100 to 500 nM |
| COc1cc2c(N(C)CC3CCN(C)CC3)cc(-c3ccccc3)nc2cc1OCCCN1CCCC1 [Compound 1-22] | 500 to 1000 nM | 1000 to 10000 nM |
| COc1cc2c(N(C)CC3CCNCC3)cc(-c3ccccc3)nc2cc1OCCCN1CCCC1 [Compound 1-23, 6-methoxy-N-methyl-2-phenyl-N-(4-piperidylmethyl)-7-(3-pyrrolidin-1-ylpropoxy)quinolin-4-amine] | 500 to 1000 nM | 100 to 500 nM |
| CNC1CCN(c2cc(-c3ccc(C)o3)nc3cc(OCCCN4CCCC4)c(OC)cc23)CC1 [Compound 2-01, 1-[6-methoxy-2-(5-methyl-2-furyl)-7-(3-pyrrolidin-1-ylpropoxy)-4-quinolyl]-N-methyl-piperidin-4-amine] | 500 to 1000 nM | 1000 to 10000 nM |
| COc1cc2c(N3CCC(CO)CC3)cc(-c3ccc(C)o3)nc2cc1OCCCN1CCCC1 [Compound 2-02] | 1000 to 10000 nM | 1000 to 10000 nM |
| CNC1CCN(c2cc(-c3ccc(C)[nH]3)nc3cc(OCCCN4CCCC4)c(OC)cc23)CC1 [Compound 2-03] | 500 to 1000 nM | 100 to 500 nM |
| CNC1CCN(c2cc(-c3ccc4occc4c3)nc3cc(OCCCN4CCCC4)c(OC)cc23)CC1 [Compound 2-04] | 1000 to 10000 nM | > 10000 nM |
| COc1cc2c(N3CCC(N(C)C)CC3)cc(-c3ccc(C)[nH]3)nc2cc1OCCCN1CCCC1 [Compound 2-05, 1-[6-methoxy-2-(5-methyl-1H-pyrrol-2-yl)-7-(3-pyrrolidin-1-ylpropoxy)-4-quinolyl]-N,N-dimethyl-piperidin-4-amine] | 100 to 500 nM | 100 to 500 nM |
| COc1cc2c(N3CCC(C(C)(C)N)CC3)cc(-c3ccc(C)o3)nc2cc1OCCCN1CCCC1 [Compound 2-07] | 1000 to 10000 nM | 500 to 1000 nM |
| CNCC1CCN(c2cc(C3CCCCC3)nc3cc(OCCCN4CCCC4)c(OC)cc23)CC1 [Compound 2-08, 1-[1-[2-cyclohexyl-6-methoxy-7-(3-pyrrolidin-1-ylpropoxy)-4-quinolyl]-4-piperidyl]-N-methyl-methanamine] | 1000 to 10000 nM | < 100 nM |
| CNCC1CCN(c2cc(-c3ccccc3)nc3cc(OCCCN4CCCC4)c(OC)cc23)CC1 [Compound 2-09] | 1000 to 10000 nM | 100 to 500 nM |
| COc1cc2c(OCC3CCN(C)CC3)cc(-c3ccc(C)o3)nc2cc1OCCCN1CCCC1 [Compound 3-02] | 500 to 1000 nM | 1000 to 10000 nM |
| COc1cc2c(OCC3CCN(C)CC3)cc(-c3ccc(C)[nH]3)nc2cc1OCCCN1CCCC1 [Compound 3-03] | 500 to 1000 nM | 100 to 500 nM |
| COc1cc2c(OC3CCN(C)CC3)cc(-c3ccc(C)o3)nc2cc1OC1CC2(C1)CN(C)C2 [Compound 3-06, 6-methoxy-7-[(2-methyl-2-azaspiro[3.3]heptan-6-yl)oxy]-2-(5-methyl-2-furyl)-4-[(1-methyl-4-piperidyl)oxy]quinoline] | 1000 to 10000 nM | > 10000 nM |
| COc1cc2c(C3CCN(C)CC3)cc(-c3ccc(C)o3)nc2cc1OCCCN1CCCC1 [Compound 4-02, 6-methoxy-2-(5-methyl-2-furyl)-4-(1-methyl-4-piperidyl)-7-(3-pyrrolidin-1-ylpropoxy)quinoline] | 1000 to 10000 nM | 1000 to 10000 nM |
| COc1cc2c(C=C3CCN(C)CC3)cc(-c3ccc(C)o3)nc2cc1OCCCN1CCCC1 [Compound 5-01, 6-methoxy-2-(5-methyl-2-furyl)-4-[(1-methyl-4-piperidylidene)methyl]-7-(3-pyrrolidin-1-ylpropoxy)quinoline] | 1000 to 10000 nM | > 10000 nM |
